According to US11530218B2, “Spiro compounds as inhibitors of KRAS” (Incyte Corporation, priority 2020, dated 2022):

Test system: KRAS G12C (MIA PaCa-2 cells)
Assay: KRAS_G12C cellular pERK HTRF assay
Type: cell-based, human
Design: G12C_pERK (KRAS_G12C pERK assay IC50): scale not given here
Details: cells incubated with compound 4 hours; for IC50: Homo sapiens, MIA PaCa-2, read-out: G12C_pERK (KRAS_G12C pERK assay IC50)
Description: MIA PaCa-2 (KRAS G12C; ATCC® CRL-1420), A427 (KRAS G12D; ATCC® HTB53), HPAF-II (KRAS G12D; ATCC® CRL-1997) and NCI-H838 (KRAS WT; ATCC® CRL-5844) cells are purchased from ATCC and maintained in RPMI 1640 media supplemented with 10% FBS (Gibco/Life Technologies). The cells are plated at 5000 cells per well (8 uL) into Greiner 384-well low volume, flat-bottom, tissue culture treated white plates and incubated overnight at 37° C., 5% CO2. The next morning, test compound stock solutions are diluted in media at 3x the final concentration, and 4 uL are added to the cells. The plate is mixed by gentle rotation for 30 seconds (250 rpm) at room temperature. The cells are incubated with the KRAS G12C and G12D compounds for 4 hours or 2 hours respectively at 37° C., 5% CO2.
4 uL of 4× lysis buffer with blocking reagent (1:25) (Cisbio) are added to each well and plates are rotated gently (300 rpm) for 30 minutes at room temperature. 4 uL per well of Cisbio anti Phospho-ERK 1/2 d2 is mixed with anti Phospho-ERK 1/2 Cryptate (1:1) are added to each well, mixed by rotation and incubated overnight in the dark at room temperature. Plates are read on the Pherastar plate reader at 665 nm and 620 nm wavelengths. IC50 determination is performed by fitting the curve of inhibitor percent inhibition versus the log of the inhibitor concentration using the GraphPad Prism 7 software.

Compound	G12C_pERK (KRAS_G12C pERK assay IC50)	IC50 [nM]
C=CC(=O)N1CCC2(C1)C(=O)Nc1c(OC[C@@H]3CCCN3C)nc3c(F)c(-c4cc(O)cc5ccccc45)c(Cl)cc3c12 (stereo partly drawn) [Example 14, 1-Acryloyl-8′-chloro-6′-fluoro-7′-(3-hydroxynaphthalen-1-yl)-4′-(((S)-1-methylpyrrolidin-2-yl)methoxy)spiro[pyrrolidine-3,1′-pyrrolo[2,3-c]quinolin]-2′(3′H)-one]	††	
C=CC(=O)N1CC2(C1)Nc1c(cnc3c(F)c(-c4c(C)ccc5[nH]ncc45)c(Cl)cc13)NC2=O [Example 7, 1-Acryloyl-9′-chloro-7′-fluoro-8′-(5-methyl-1H-indazol-4-yl)-1′,4′-dihydro-3′H-spiro[azetidine-3,2′-pyrazino[2,3-c]quinolin]-3′-one]		1000 to 5000
C=CC(=O)N1CC2(C1)Nc1c(c(OC[C@@H]3CCCN3C)nc3c(F)c(-c4c(O)cccc4F)c(Cl)cc13)NC2=O [Example 18, 1-Acryloyl-9′-chloro-7′-fluoro-8′-(2-fluoro-6-hydroxyphenyl)-5′-(((S)-1-methylpyrrolidin-2-yl)methoxy)-1′,4′-dihydro-3′H-spiro[azetidine-3,2′-pyrazino[2,3-c]quinolin]-3′-one]		1000 to 5000
C=CC(=O)N1CCC2(CC1)C(=O)N(C)c1c(OC[C@@H]3CCCN3C)nc3c(F)c(-c4cc(O)cc5ccccc45)c(Cl)cc3c12 (single isomer, unassigned) [Example 16a]	††	
C=CC(=O)N1CC2(C1)Nc1c(cnc3c(F)c(-c4c(O)cccc4F)c(Cl)cc13)NC2=O [Example 6, 1-Acryloyl-9′-chloro-7′-fluoro-8′-(2-fluoro-6-hydroxyphenyl)-1′,4′-dihydro-3′H-spiro[azetidine-3,2′-pyrazino[2,3-c]quinolin]-3′-one]		1000 to 5000
C=CC(=O)N1CCC2(C1)Nc1c(cnc3c(F)c(-c4c(O)cccc4F)c(Cl)cc13)NC2=O (centres unmarked) [Example 8, 1′-Acryloyl-9-chloro-7-fluoro-8-(2-fluoro-6-hydroxyphenyl)-1,4-dihydro-3H-spiro[pyrazino[2,3-c]quinoline-2,3′-pyrrolidin]-3-one]		1000 to 5000
C=CC(=O)N1CCC2(CC1)Nc1c(c(OCCN3CCCCC3)nc3c(F)c(-c4c(O)cccc4F)c(Cl)cc13)NC2=O [Example 12, 1-Acryloyl-9′-chloro-7′-fluoro-8′-(2-fluoro-6-hydroxyphenyl)-5′-(2-(piperidin-1-yl)ethoxy)-1′,4′-dihydro-3′H-spiro[piperidine-4,2′-pyrazino[2,3-c]quinolin]-3′-one]		1000 to 5000
C=CC(=O)N1CCC2(CC1)Nc1c(cnc3c(F)c(-c4cc(O)ccc4Cl)c(Cl)cc13)NC2=O [Example 2, 1-Acryloyl-9′-chloro-8′-(2-chloro-5-hydroxyphenyl)-7′-fluoro-1′,4′-dihydro-3′H-spiro[piperidine-4,2′-pyrazino[2,3-c]quinolin]-3′-one]		1000 to 5000
